Laboratory results from patent US9174995B2, “Pyrrolotriazinone derivatives” (Merck Patent GmbH, priority 2012, dated 2015).

What follows are compounds tested against T1, GST-tagged Tnks-1 (1023-1327 aa) (Homo sapiens, UniProt O95271) (assay: TNKS1 activity ELISA (autoparsylation assay)).
T1 construct: GST-tagged Tnks-1 (1023-1327 aa, prepared in-house); made in house
Type: biochemical
Experimental: Description of the TNKS1 and TNKS2 ELISA Assay
Biochemical Activity Testing of TNKS 1 and 2: Activity ELISA (Autoparsylation Assay)
For analysis of autoparsylation activity of TNKS 1 and 2 an activity ELISA is performed: In the first step GST tagged TNKS is captured on a Glutathione coated plate. Then the activity assay with biotinylated NAD is performed in the absence/presence of the compounds. During the enzymatic reaction GST tagged TNKS transfers biotinylated ADP-ribose to itself from biotinylated NAD as co-substrate. For the detection streptavidin-HRP conjugate is added that binds to the biotinylated TNKS and is thereby captured to the plates. The amount of biotinylated resp. autoparsylated TNKS is detected with a luminescence substrate for HRP. The level of the luminescence signal correlats directly with the amount of autoparsylated TNKS and therefore with activity of TNKS.
The activity ELISA is performed in 384 well Glutathione coated microtiter plates (Express capture Glutathione coated plate, Biocat, Heidelberg, Germany). The plates are pre-equilibrated with PBS. Then the plates are incubated with 50 μl 20 ng/well GST-tagged Tnks-1 (1023-1327 aa, prepared in-house), respectively GST-tagged Tnks-2 (873-1166 aa, prepared in-house) in assay buffer (50 mM HEPES, 4 mM Mg-chloride, 0.05% Pluronic F-68, 2 mM DTT, pH 7.7) overnight at 4° C. The plates are washed 3 times with PBS-Tween-20. The wells are blocked by incubation at room temperature for 20 minutes with 50 μl blocking buffer (PBS, 0.05% Tween-20, 0.5% BSA). Afterwards the plates are washed 3 times with PBS-Tween-20. The enzymatic reaction is performed in 50 μl reaction solution (50 mM HEPES, 4 mM Mg-chloride, 0.05% Pluronic F-68, 1.4 mM DTT, 0.5% DMSO, pH 7.7) with 10 μM bio-NAD (Biolog, Life science Inst., Bremen, Germany) as co-substrate in the absence or presence of the test compound (10 dilution concentrations) for 1 hour at 30° C. The reaction is stopped by 3 times washing with PBS-Tween-20. For the detection 50 μl of 20 ng/μl Streptavidin, HRP conjugate (MoBiTec, Göttingen, Germany) in PBS/0.05%Tween-20/0.01%BSA are added and the plates are incubated for 30 minutes at room temperature. After three times washing with PBS-Tween-20 50 μl of SuperSignal ELISA Femto Maximum sensitivity substrate solution (ThermoFisherScientific (Pierce), Bonn, Germany) are added. Following a 1 minute incubation at room temperature luminescence signals are measured with an Envision multimode reader (Perkin Elmer LAS Germany GmbH) at 700 nm. The full value used is the inhibitor-free reaction. The pharmacological zero value used is XAV-939 (Tocris) in a final concentration of 5 μM. The inhibitory values (IC50) are determined using either the program Symyx Assay Explorer® or Condosseo® from GeneData.

T1 sequence (O95271 1023-1327): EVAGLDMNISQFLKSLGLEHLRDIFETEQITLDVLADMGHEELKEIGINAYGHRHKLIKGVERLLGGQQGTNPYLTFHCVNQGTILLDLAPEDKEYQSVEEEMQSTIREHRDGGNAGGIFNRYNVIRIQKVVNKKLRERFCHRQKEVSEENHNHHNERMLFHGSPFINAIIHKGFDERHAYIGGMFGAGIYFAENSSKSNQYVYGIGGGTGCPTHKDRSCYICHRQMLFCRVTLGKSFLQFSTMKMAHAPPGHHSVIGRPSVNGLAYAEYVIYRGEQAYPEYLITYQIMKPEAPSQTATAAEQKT

SMILES | IC50 [nM]
CCC(O)(CC)c1ccc(-c2nn3cccc3c(=O)[nH]2)cc1 [Compound A14, 2-[4-(1-ethyl-1-hydroxy-propyl)-phenyl]-3H-pyrrolo[2,1-f][1,2,4]triazin-4-one] | < 300
Cc1cc2c(=O)[nH]c(-c3ccc(-c4cnn(C)c4)cc3)nn2c1 [Compound A13, 6-methyl-2-[4-(1-methylpyrazol-4-yl)phenyl]-3H-pyrrolo-[2,1-f][1,2,4]triazin-4-one] | < 300
CC(C)(O)c1ccc(-c2nn3cccc3c(=O)[nH]2)cc1 [Compound A5, 2-[4-(1-hydroxy-1-methyl-ethyl)-phenyl]-3H-pyrrolo[2,1-f][1,2,4]triazin-4-one] | < 300
CC(C)(O)c1ccc(-c2nn3cc(Cl)cc3c(=O)[nH]2)cc1 [Compound A18, 6-chloro-2-[4-(1-hydroxy-1-methyl-ethyl)-phenyl]-3H-pyrrolo[2,1-f][1,2,4]triazin-4-one] | < 300
Cn1cc(-c2ccc(-c3nn4cccc4c(=O)[nH]3)cc2)cn1 [Compound A7, 2-[4-(1-methyl-1H-pyrazol-4-yl)-phenyl]-3H-pyrrolo[2,1-f][1,2,4]triazin-4-one] | < 300
CC(C)(OCCO)c1ccc(-c2nn3cccc3c(=O)[nH]2)cc1 [Compound A15, 2-{4-[1-(2-hydroxy-ethoxy)-1-methyl-ethyl]-phenyl}-3H-pyrrolo[2,1-f][1,2,4]triazin-4-one] | < 300
O=c1[nH]c(-c2ccc(C3(O)CCCC3)cc2)nn2cccc12 [Compound A21, 2-[4-(1-hydroxy-cyclopentyl)-phenyl]-3H-pyrrolo[2,1-f][1,2,4]-triazin-4-one] | < 300
Cc1cc2c(=O)[nH]c(-c3ccc(C(C)(C)O)cc3)nn2c1 [Compound A11, 2-[4-(1-hydroxy-1-methyl-ethyl)phenyl]-6-methyl-3H-pyrrolo[2,1-f][1,2,4]triazin-4-one] | < 300
CC(C)(O)c1ccc(-c2nn3cc(F)cc3c(=O)[nH]2)cc1 [Compound A12, 6-fluoro-2-[4-(1-hydroxy-1-methyl-ethyl)phenyl]-3H-pyrrolo[2,1-f][1,2,4]triazin-4-one] | < 300
